Laboratory results from publication PMC8327648 (Acta Pharmaceutica Sinica. B, 2021).

Experiments:
[1] = tested on: authentic SARS-CoV-2; conditions: 48 h
[2] = tested on: SARS-CoV-2 S protein-mediated cell–cell fusion; conditions: 2 h
[3] = tested on: pseudotyped HCoV-NL63; conditions: 12 h
[4] = tested on: authentic HCoV-OC43; conditions: 36 h
[5] = tested on: trypsin; conditions: n = 3
[6] = tested on: SARS-CoV-2 PsV; conditions: 12 h
[7] = molecular target: proteinase K (Parengyodontium album, UniProt P06873); conditions: n = 3
Chain of proteinase K (P06873 106-384): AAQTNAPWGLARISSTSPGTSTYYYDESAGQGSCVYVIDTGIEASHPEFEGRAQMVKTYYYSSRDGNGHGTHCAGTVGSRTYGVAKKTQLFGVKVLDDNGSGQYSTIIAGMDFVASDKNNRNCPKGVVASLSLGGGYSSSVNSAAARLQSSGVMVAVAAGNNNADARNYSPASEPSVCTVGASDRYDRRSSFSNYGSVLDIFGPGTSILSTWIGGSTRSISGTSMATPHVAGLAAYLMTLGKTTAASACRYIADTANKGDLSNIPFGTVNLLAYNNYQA

How did the IC50 [1] turn out when CC[C@H](C)[C@H](NC(=O)[C@H](C)NC(=O)[C@H](CCC(=O)O)NC(=O)[C@H](CCC(=O)O)NC(=O)[C@H](CC(C)C)NC(=O)[C@H](CCCCN)NC(=O)[C@H](CCCCN)NC(=O)[C@H](CCSC)NC(=O)[C@H](CCC(=O)O)NC(=O)[C@H](Cc1ccc(O)cc1)NC(=O)[C@H](CCC(=O)O)NC(=O)[C@H](CC(C)C)NC(=O)[C@H](CC(=O)O)NC(=O)[C@H](CC(C)C)NC(=O)[C@H](Cc1ccccc1)NC(=O)[C@@H](NC(=O)[C@@H](NC(=O)[C@H](CC(N)=O)NC(=O)[C@@H](NC(=O)[C@H](CCC(N)=O)NC(=O)[C@H](CC(=O)O)NC(=O)[C@H](CC(C)C)NC(=O)[C@@H](N)CO)[C@@H](C)CC)C(C)C)[C@@H](C)O)C(=O)N[C@@H](CCCCN)C(=O)N[C@@H](CCCCN)C(=O)N[C@@H](CC(C)C)C(=O)N[C@@H](CCC(=O)O)C(=O)N[C@@H](CCC(=O)O)C(=O)N[C@@H](CO)C(=O)N[C@@H](Cc1ccc(O)cc1)C(=O)N[C@H](C(=O)N[C@@H](CC(=O)O)C(=O)N[C@@H](CC(C)C)C(=O)N[C@@H](CCCCN)C(=O)N[C@@H](CCC(=O)O)C(=O)N[C@@H](CC(C)C)C(N)=O)[C@@H](C)CC [EK1] was run?
Its IC50 is 71 nM.

And the IC50 [2]?
Its IC50 is 320 nM.

And the IC50 [3]?
Its IC50 is 1340 nM.

And the IC50 [4]?
The IC50 was 2430 nM.

Which “sensitivity to trypsin (residual inhibitory activity over time)” value [5] does the source give for CC[C@H](C)[C@H](NC(=O)[C@H](C)NC(=O)[C@H](CCC(=O)O)NC(=O)[C@H](CCC(=O)O)NC(=O)[C@H](CC(C)C)NC(=O)[C@H](CCCCN)NC(=O)[C@H](CCCCN)NC(=O)[C@H](CCSC)NC(=O)[C@H](CCC(=O)O)NC(=O)[C@H](Cc1ccc(O)cc1)NC(=O)[C@H](CCC(=O)O)NC(=O)[C@H](CC(C)C)NC(=O)[C@H](CC(=O)O)NC(=O)[C@H](CC(C)C)NC(=O)[C@H](Cc1ccccc1)NC(=O)[C@@H](NC(=O)[C@@H](NC(=O)[C@H](CC(N)=O)NC(=O)[C@@H](NC(=O)[C@H](CCC(N)=O)NC(=O)[C@H](CC(=O)O)NC(=O)[C@H](CC(C)C)NC(=O)[C@@H](N)CO)[C@@H](C)CC)C(C)C)[C@@H](C)O)C(=O)N[C@@H](CCCCN)C(=O)N[C@@H](CCCCN)C(=O)N[C@@H](CC(C)C)C(=O)N[C@@H](CCC(=O)O)C(=O)N[C@@H](CCC(=O)O)C(=O)N[C@@H](CO)C(=O)N[C@@H](Cc1ccc(O)cc1)C(=O)N[C@H](C(=O)N[C@@H](CC(=O)O)C(=O)N[C@@H](CC(C)C)C(=O)N[C@@H](CCCCN)C(=O)N[C@@H](CCC(=O)O)C(=O)N[C@@H](CC(C)C)C(=O)NCC(=O)N[C@@H](CO)C(=O)NCC(=O)N[C@@H](CO)C(=O)NCC(=O)NCCOCCOCCOCCOCCC(=O)N[C@@H](CSCC(=O)O[C@H]1CC[C@@]2(C)C(=CC[C@H]3[C@@H]4CC[C@H]([C@H](C)CCCC(C)C)[C@@]4(C)CC[C@@H]32)C1)C(N)=O)[C@@H](C)CC [EK1C4] here?
The value was “gradually decreased more significantly”.

And the IC50 [6]?
Its IC50 is 7 to 27 nM.

What about the IC50 [2] of the same molecule?
The IC50 was 3 nM.

And the “sensitivity to proteinase K (residual inhibitory activity over time)” value [7]?
The value was “gradually decreased more significantly”.
